Experimental data as given in US20160271263A1 (Novo Nordisk A/S, priority 2010, published 2016).
pEC50: −log10 of the molar value. Numbered stars: 1 amine (or outer) side, 2 acyl side, 3 side chain; on linkers, the order of the positions; unused ones are H or OH. Side chains are listed from the residue outwards. Peptide text beside a SMILES is read from it. * marks the point of attachment. C18 diacid = O=C(O)CCCCCCCCCCCCCCCCC(=O)*; γGlu = O=C(O)[C@H](CCC(=O)[*:2])N[*:1]; AEEA = NCCOCCOCC(=O)O

Biological target: glucagon receptor (Homo sapiens, UniProt P47871)
Sequence (P47871 26-477): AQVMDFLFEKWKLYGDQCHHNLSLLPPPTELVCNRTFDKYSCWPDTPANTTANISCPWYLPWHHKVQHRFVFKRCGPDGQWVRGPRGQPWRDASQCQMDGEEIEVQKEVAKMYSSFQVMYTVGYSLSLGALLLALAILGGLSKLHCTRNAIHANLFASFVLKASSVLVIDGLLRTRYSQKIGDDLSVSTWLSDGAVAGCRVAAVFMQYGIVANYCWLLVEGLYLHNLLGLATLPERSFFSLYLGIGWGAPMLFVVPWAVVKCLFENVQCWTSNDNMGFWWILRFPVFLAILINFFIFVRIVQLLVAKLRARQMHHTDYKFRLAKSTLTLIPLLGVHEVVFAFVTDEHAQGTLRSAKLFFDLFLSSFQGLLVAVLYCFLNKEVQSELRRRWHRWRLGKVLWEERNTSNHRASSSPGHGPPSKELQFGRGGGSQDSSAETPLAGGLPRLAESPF
Test: cell-based

Structure (SMILES) | pEC50
CC(C)C[C@H](NC(=O)[C@H](Cc1ccc(O)cc1)NC(=O)[C@H](CCCCN)NC(=O)[C@H](CO)NC(=O)[C@H](Cc1ccc(O)cc1)NC(=O)[C@H](CC(=O)O)NC(=O)[C@H](CO)NC(=O)[C@@H](NC(=O)[C@H](Cc1ccccc1)NC(=O)[C@@H](NC(=O)CNC(=O)[C@H](CCC(N)=O)NC(=O)[C@H](CO)NC(=O)[C@@H](N)Cc1c[nH]cn1)[C@@H](C)O)[C@@H](C)O)C(=O)N[C@@H](CC(=O)O)C(=O)N[C@@H](CO)C(=O)N[C@@H](CCCNC(=N)N)C(=O)N[C@@H](CCCNC(=N)N)C(=O)N[C@@H](C)C(=O)N[C@@H](CCC(N)=O)C(=O)N[C@@H](CC(=O)O)C(=O)N[C@@H](Cc1ccccc1)C(=O)N[C@H](C(=O)N[C@@H](CCC(N)=O)C(=O)N[C@@H](Cc1c[nH]c2ccccc12)C(=O)N[C@@H](CC(C)C)C(=O)N[C@@H](CC(C)C)C(=O)N[C@@H](CCCCNC(=O)CC[C@H](NC(=O)CC[C@H](NC(=O)CC[C@H](NC(=O)CCCCCCCCCCCCCCCCC(=O)O)C(=O)O)C(=O)O)C(=O)O)C(=O)N[C@H](C(=O)O)[C@@H](C)O)C(C)C [Example 79, N^ε28-[(4S)-4-carboxy-4-[[(4S)-4-carboxy-4-[[(4S)-4-carboxy-4-(17-carboxyheptadecanoylamino)butanoyl]amino]butanoyl]amino]butanoyl]-[Leu^27,Lys^28]-Glucagon] | 9.85
CC(C)C[C@H](NC(=O)[C@H](Cc1ccc(O)cc1)NC(=O)[C@H](CCCCN)NC(=O)[C@H](CO)NC(=O)[C@H](Cc1ccc(O)cc1)NC(=O)[C@H](CC(=O)O)NC(=O)[C@H](CO)NC(=O)[C@@H](NC(=O)[C@H](Cc1ccccc1)NC(=O)[C@@H](NC(=O)CNC(=O)[C@H](CCC(N)=O)NC(=O)[C@H](CO)NC(=O)[C@@H](N)Cc1c[nH]cn1)[C@@H](C)O)[C@@H](C)O)C(=O)N[C@@H](CC(=O)O)C(=O)N[C@@H](CO)C(=O)N[C@@H](CCCNC(=N)N)C(=O)N[C@@H](CCCNC(=N)N)C(=O)N[C@@H](C)C(=O)N[C@@H](CCC(N)=O)C(=O)N[C@@H](CC(=O)O)C(=O)N[C@@H](Cc1ccccc1)C(=O)N[C@H](C(=O)N[C@@H](CCC(N)=O)C(=O)N[C@@H](Cc1c[nH]c2ccccc12)C(=O)N[C@@H](CC(C)C)C(=O)N[C@@H](CCCCNC(=O)CC[C@H](NC(=O)CC[C@H](NC(=O)COCCOCCNC(=O)COCCOCCNC(=O)CC[C@H](NC(=O)CCCCCCCCCCCCCCCCC(=O)O)C(=O)O)C(=O)O)C(=O)O)C(=O)N[C@@H](CC(N)=O)C(=O)N1CCC[C@H]1C(=O)O)C(C)C [Example 85, N^ε27-[(4S)-4-carboxy-4-[[(4S)-4-carboxy-4-[[2-[2-[2-[[2-[2-[2-[[(4S)-4-carboxy-4-(17-carboxyheptadecanoylamino)butanoyl]amino]ethoxy]ethoxy]acetyl]amino]ethoxy]ethoxy]acetyl]amino]butanoyl]amino]butanoyl]-[Lys^27,Pro^29]-Glucagon] | 8.93
CC(C)C[C@H](NC(=O)[C@H](Cc1ccc(O)cc1)NC(=O)[C@H](CCCCN)NC(=O)[C@H](CO)NC(=O)[C@H](Cc1ccc(O)cc1)NC(=O)[C@H](CC(=O)O)NC(=O)[C@H](CO)NC(=O)[C@@H](NC(=O)[C@H](Cc1ccccc1)NC(=O)[C@@H](NC(=O)CNC(=O)[C@H](CCC(N)=O)NC(=O)[C@H](CO)NC(=O)[C@@H](N)Cc1c[nH]cn1)[C@@H](C)O)[C@@H](C)O)C(=O)N[C@@H](CC(=O)O)C(=O)N[C@@H](CCCCNC(=O)COCCOCCNC(=O)COCCOCCNC(=O)CC[C@H](NC(=O)CCCCCCCCCCCCCCCCC(=O)O)C(=O)O)C(=O)N[C@@H](CCCCN)C(=O)N[C@@H](CCCCN)C(=O)N[C@@H](C)C(=O)N[C@@H](CCC(N)=O)C(=O)N[C@@H](CCC(=O)O)C(=O)N[C@@H](Cc1ccccc1)C(=O)N[C@H](C(=O)N[C@@H](CCC(N)=O)C(=O)N[C@@H](Cc1c[nH]c2ccccc12)C(=O)N[C@@H](CC(C)C)C(=O)N[C@@H](CC(C)C)C(=O)N[C@@H](CC(N)=O)C(=O)N[C@H](C(=O)O)[C@@H](C)O)C(C)C [Example 6] (H-HSQGTFTSDYSKYLDK([AEEA-AEEA-γGlu-C18 diacid])KKAQEFVQWLLNT-OH; N-terminus and C-terminus assumed) | 10.70

The remaining compounds from weak to strong by pEC50, led by results:

pEC50 | Structure (SMILES)
9.94 | CC(C)C[C@H](NC(=O)[C@H](Cc1ccc(O)cc1)NC(=O)[C@H](CCCCN)NC(=O)[C@H](CO)NC(=O)[C@H](Cc1ccc(O)cc1)NC(=O)[C@H](CC(=O)O)NC(=O)[C@H](CO)NC(=O)[C@@H](NC(=O)[C@H](Cc1ccccc1)NC(=O)[C@@H](NC(=O)CNC(=O)[C@H](CCC(N)=O)NC(=O)[C@H](CO)NC(=O)[C@@H](N)Cc1c[nH]cn1)[C@@H](C)O)[C@@H](C)O)C(=O)N[C@@H](CC(=O)O)C(=O)N[C@@H](CO)C(=O)N[C@@H](CCCNC(=N)N)C(=O)N[C@@H](CCCNC(=N)N)C(=O)N[C@@H](C)C(=O)N[C@@H](CCC(N)=O)C(=O)N[C@@H](CC(=O)O)C(=O)N[C@@H](Cc1ccccc1)C(=O)N[C@H](C(=O)N[C@@H](CCCCNC(=O)COCCOCCNC(=O)COCCOCCNC(=O)CC[C@H](NC(=O)CC[C@H](NC(=O)CC[C@H](NC(=O)CCCCCCCCCCCCCCCCC(=O)O)C(=O)O)C(=O)O)C(=O)O)C(=O)N[C@@H](Cc1c[nH]c2ccccc12)C(=O)N[C@@H](CC(C)C)C(=O)N[C@@H](CC(C)C)C(=O)N[C@@H](CO)C(=O)N[C@H](C(=O)O)[C@@H](C)O)C(C)C [Example 69, N^ε24-[2-[2-[2-[[2-[2-[2-[[(4S)-4-carboxy-4-[[(4S)-4-carboxy-4-[[(4S)-4-carboxy-4-(17-carboxyheptadecanoylamino)butanoyl]amino]butanoyl]amino]butanoyl]amino]ethoxy]ethoxy]acetyl]amino]ethoxy]ethoxy]acetyl]-[Lys^24,Leu^27,Ser^28]-Glucagon]
9.97 | CC(C)C[C@H](NC(=O)[C@H](Cc1ccc(O)cc1)NC(=O)[C@H](CCCCN)NC(=O)[C@H](CO)NC(=O)[C@H](Cc1ccc(O)cc1)NC(=O)[C@H](CC(=O)O)NC(=O)[C@H](CO)NC(=O)[C@@H](NC(=O)[C@H](Cc1ccccc1)NC(=O)[C@@H](NC(=O)CNC(=O)[C@H](CCC(N)=O)NC(=O)[C@H](CO)NC(=O)[C@@H](N)Cc1c[nH]cn1)[C@@H](C)O)[C@@H](C)O)C(=O)N[C@@H](CC(=O)O)C(=O)N[C@@H](CO)C(=O)N[C@@H](CCCNC(=N)N)C(=O)N[C@@H](CCCNC(=N)N)C(=O)N[C@@H](C)C(=O)N[C@@H](CCC(N)=O)C(=O)N[C@@H](CC(=O)O)C(=O)N[C@@H](Cc1ccccc1)C(=O)N[C@H](C(=O)N[C@@H](CCCCNC(=O)CC[C@H](NC(=O)COCCOCCNC(=O)COCCOCCNC(=O)CC[C@H](NC(=O)CC[C@H](NC(=O)CCCCCCCCCCCCCCCCC(=O)O)C(=O)O)C(=O)O)C(=O)O)C(=O)N[C@@H](Cc1c[nH]c2ccccc12)C(=O)N[C@@H](CC(C)C)C(=O)N[C@@H](CC(C)C)C(=O)N[C@@H](CO)C(=O)N[C@H](C(=O)O)[C@@H](C)O)C(C)C [Example 68, N^ε24-[(4S)-4-carboxy-4-[[2-[2-[2-[[2-[2-[2-[[(4S)-4-carboxy-4-[[(4S)-4-carboxy-4-(17-carboxyheptadecanoylamino)butanoyl]amino]butanoyl]amino]ethoxy]ethoxy]acetyl]amino]ethoxy]ethoxy]acetyl]amino]butanoyl]-[Lys^24,Leu^27,Ser^28]-Glucagon]
